pIC50: −log10 of the molar value. Marks after values point to notes of the source that are not given here.
Tests used:
[1] = biological target: T1, OATP1B1 (Homo sapiens, UniProt Q9Y6L6); test: OATP1B1 inhibition assay using Fluo-3 as probe substrate, CHO cells; type: cell-based; design: expressed in transfected cells; host or cells: CHO cells; details: for pIC50: OATP1B1, Fluo-3; for inhibition at 1 h, 100 µM: human, CHO cells transfected with human OATP1B1, pH 7.4, probe Fluo-3 (2 μM), OATP1B1, Fluo-3, at 100 μM, read-out: Maximum inhibition at highest test conc. (% of control)
T1 sequence (Q9Y6L6 1-691): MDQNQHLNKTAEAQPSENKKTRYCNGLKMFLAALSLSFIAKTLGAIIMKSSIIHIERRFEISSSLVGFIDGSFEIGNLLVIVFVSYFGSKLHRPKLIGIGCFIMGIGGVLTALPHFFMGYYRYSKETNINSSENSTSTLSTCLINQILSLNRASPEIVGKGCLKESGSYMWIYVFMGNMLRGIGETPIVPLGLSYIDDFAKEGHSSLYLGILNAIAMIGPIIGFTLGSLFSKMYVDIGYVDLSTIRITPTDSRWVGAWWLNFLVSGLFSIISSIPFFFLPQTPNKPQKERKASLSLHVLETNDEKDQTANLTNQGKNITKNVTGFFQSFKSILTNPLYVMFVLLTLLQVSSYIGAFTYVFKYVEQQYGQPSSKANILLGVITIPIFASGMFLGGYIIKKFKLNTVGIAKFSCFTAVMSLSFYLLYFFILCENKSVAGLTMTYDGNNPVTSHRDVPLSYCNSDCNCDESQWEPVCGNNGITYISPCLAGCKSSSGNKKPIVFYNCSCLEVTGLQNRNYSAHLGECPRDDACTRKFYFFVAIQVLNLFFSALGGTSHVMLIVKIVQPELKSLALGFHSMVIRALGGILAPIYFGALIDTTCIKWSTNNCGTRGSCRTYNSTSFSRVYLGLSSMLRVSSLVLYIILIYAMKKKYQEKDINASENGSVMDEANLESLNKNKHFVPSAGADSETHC
Procedure: Chinese Hamster Ovary (CHO) cells, either wild type or transfected with the genes encoding human OATP1B1 or OATP1B3, were maintained in Dulbecco's Modification of Eagle's Medium (DMEM) containing 1,000 mg/L D-glucose, L-glutamine, 25 mM HEPES buffer, and 110 mg/L sodium pyruvate, 1% Pen/Strep, 10% fetal bovine serum, 0.05 mg/mL L-proline and 0.5 mg/mL of geneticin G-418. Cells were maintained in incubators set at 37° C., 90% humidity and 5% CO2. OATP1B1 or OATP1B3 overexpressing CHO cells were seeded in BioCoat Poly-D-Lysine coated 96 well black cell culture plates with clear bottoms at a density of 1×10^5 cells/well. Sodium butyrate (10 mM) was added to the OATP1B1 and OATP1B3 cells to increase the protein expression level, and the cells were grown to confluence overnight. The assay buffer contained 142 mM NaCl, 5 mM KCl, 1 mM KH2PO4, 1.2 mM MgSO4, 1.5 mM CaCl2, 5 mM Glucose and 12.5 mM HEPES (pH 7.4). After removal of the media and before adding test compounds, the cells were washed twice with 37° C. assay buffer followed by a 0.5 h pre-incubation with assay buffer. Test compounds were serially diluted in DMSO at 250-fold of final test concentrations to create the compound spiking solutions. Compounds were then spiked into assay buffer containing 2 μM Fluo-3 and incubated with cells for 1 h. Following removal of assay buffer containing Fluo-3 and test compound, cells were washed 3 times with 200 μl of ice cold assay buffer and then lysed at room temperature for 15 minutes in a lysis buffer containing […] in a 1 mM CaCl2 solution. Substrate accumulations were determined for Fluo-3 fluorescence at an excitation of 485 nm and emission of 530 nm.
Percent inhibition was calculated according to the following equation: % inhibition=[1−{[OATP]i−[WT]ni}/{[OATP]ni−[WT]ni}]*100 where: [OATP]i represent the substrate accumulation in the presence of test compound for either OATP1B1, OATP1B3, or OATP2B1 cells; [OATP]ni represents the substrate accumulation in the absence of test compound for either OATP1B1, OATP1B3, or OATP2B1 cells, respectively; and [WT]ni represents the substrate accumulation in the absence of test compound for wild type cells or Mock cells, respectively. IC50 Determination in Transporter Assays
IC50 was determined according to the procedures described in Example 5. […] Results are reported as NIO (no interaction observed).

[2] = Phase 1 mass-balance study, [14C]bictegravir metabolite profiling in plasma, urine and feces; details: for % of plasma AUC0-72 h of total radioactivity: human plasma, AUC pool 0-72 h, single oral 100 mg [14C]bictegravir; for % of administered dose in urine: human urine pooled 0 to 96 hours postdose; for % of administered dose in feces: feces pooled per individual subject, 0 to 144 hours postdose, average of 8 subjects
From the text: A total of eight patents were enrolled. Subjects were healthy male nonsmokers, 18 to 45 years of age, inclusive, with a body mass index (BMI) from 19 to 30 kg/m2, inclusive, normal 12-lead electrocardiogram (ECG), normal renal function, no significant medical history, and in good general health, as determined by the investigator at the screening evaluation performed no more than 28 days prior to the scheduled first dose.
Treatment involved a single, oral dose followed by a 6- to 21-day sample collection period, the exact duration of which was based on recovery of radiolabeled drug. […] Following administration, the dosing container was rinsed twice, each rinse with approximately 50 mL of cranberry juice, and administered to the subject. The entire study drug solution and cranberry juice rinse (total of approximately 140 mL) was taken within a 10 minute window. […]
Urine: Metabolite profiling and quantitation in urine was performed with samples pooled for individual subjects within the period of 0 to 96 hours postdose.
Feces: Metabolite profiling and quantitation in feces was performed with the feces samples pooled for individual subjects.
Metabolite Quantitation: LC-Radio-chromatograms of the pooled plasma, urine, and feces samples were obtained.

With `O=C(NCc1c(F)cc(F)cc1F)c1cn2c(c(O[C@@H]3O[C@H](C(=O)O)[C@@H](O)[C@H](O)[C@H]3O)c1=O)C(=O)N1[C@H]3CC[C@H](C3)O[C@@H]1C2` [Metabolite M15] the pIC50 [1] was < 4.00, the inhibition at 1 h, 100 µM [1] was 39% and the “% of plasma AUC0-72 h of total radioactivity” value [2] was 8.6%. For the same compound, the “% of administered dose in urine” value [2] was 21.4%.

With `O=C(NCc1c(F)cc(F)c(OS(=O)(=O)O)c1F)c1cn2c(c(O)c1=O)C(=O)N1C(C2)O[C@@H]2CC[C@H]1C2` (stereo partly shown) [Metabolite M20] the pIC50 [1] was 4.05, the inhibition at 1 h, 100 µM [1] was 54% and the “% of plasma AUC0-72 h of total radioactivity” value [2] was 20.1%.

In the case of `O=C(NCc1c(F)cc(F)cc1F)c1cn2c(c(O)c1=O)C(=O)N1[C@H]3CC[C@H](C3)O[C@@H]1C2` [BIC, bictegravir, reference compound], the “% of administered dose in feces” value [2] was 30.6%, the “% of plasma AUC0-72 h of total radioactivity” value [2] was 67.9% and the “% of plasma AUC0-72 h of total radioactivity” value ([2]; listed as [^14C]Bictegravir) was 67.9%. The “% of plasma AUC0-72 h of total radioactivity” value ([2]; listed as [^14C]bictegravir) was “approximately 67.9%” and the “% of administered dose in urine” value [2] was 3.6%.

With `O=C(NCc1c(F)cc(F)c(O)c1F)c1cn2c(c(O)c1=O)C(=O)N1[C@H]3CC[C@H](C3)O[C@@H]1C2` [Metabolite M23] the pIC50 [1] was 4.00, the inhibition at 1 h, 100 µM [1] was 51% and the “% of administered dose in feces” value [2] was 3.6%. The “% of plasma AUC0-72 h of total radioactivity” value [2] was 0.2^c %.

From patent publication US11253524B2 (Gilead Sciences, Inc., priority 2018, dated 2022)
